Results as given in publication PMC12401824, “Studies on the impact of modifications at the Gln-Trp site in RM2-based GRPR ligands” (EJNMMI Research, 2025).
Read-outs that look alike come from different tables or passages of the source. Starred links: 1 amine or outer side, 2 acyl side, 3 side chain; linkers in the order of their positions; H or OH if unused. Non-standard residues stand in square brackets, D forms with d. Residues, ends and D or L forms follow the SMILES beside them. *: point of attachment. X2 = O=C(O)CN1CCN(CC(=O)O)CCN(CC(=O)NCc2ccc(NC(=O)COCC(=O)*)cc2)CCN(CC(=O)O)CC1; DOTA = O=C(O)CN1CCN(CC(=O)O)CCN(CC(=O)*)CCN(CC(=O)O)CC1; NODAGA = O=C(O)CN1CCN(CC(=O)O)CCN(C(CCC(=O)*)C(=O)O)CC1; NOTA = O=C(O)CN1CCN(CC(=O)O)CCN(CC(=O)*)CC1; Sta = CC(C)C[C@H](N)[C@@H](O)CC(=O)O; Bta = N[C@@H](Cc1csc2ccccc12)C(=O)O; X1 = O=C(CN1CCC(N[*:1])CC1)[*:2]; NHCH(iBu)2 = CC(C)CC(CC(C)C)N*; hSer = N[C@@H](CCO)C(=O)O

Key:
[1] = Metabolic stability in vitro in human serum (37 °C, 72 ± 2 h); assay type: in vitro ADME; details: ^177Lu-labeled NeoB and UL analogs, n = 3
Procedure: Metabolic stability in vitro was determined applying a procedure published by Linder et al. that was slightly modified. Immediately after labeling, human serum (200 µL) was added to the labeling solution (~ 30 µL) and the mixture was incubated at 37 °C for 72 ± 2 h. Proteins were precipitated by treatment with ice-cold ethanol (150 µL) and ice-cold acetonitrile (450 µL), followed by centrifugation at 13,000 rpm for 5 min. The supernatants were decanted and further analyzed using radio RP-HPLC.

GRPR = target: T1, GRPR (Homo sapiens, UniProt P30550); assay: GRPR affinity (IC50), competitive binding on PC-3 cells vs [3-[^125I]I-D-Tyr^6]MJ9; details: 2 h, rt
T1 construct: host or cells: PC-3 cells
Procedure: IC50 values of all compounds were determined according to a previously published procedure. Detailed information on culturing PC-3 cells and on the execution of IC50 studies is provided in the supplementary materials. In brief, competitive binding studies were performed in triplicate on PC-3 cells (1.5 × 10^5 cells in 1 mL/well) after incubation at room temperature for 2 h, using [3-[^125I]I-D-Tyr^6]MJ9 (0.2 nM/well) as radiolabeled reference (n = 3).
After removal of the culture medium, the cells were washed once with 500 µL of HBSS (Hank’s balanced salt solution, Biochrom GmbH, Berlin, Germany, with addition of 1% bovine serum albumin (BSA, v/v)) and left in 200 µL HBSS (1% BSA, v/v) for 9 min at rt for equilibration. Next, 25 µL per well of solutions, containing either HBSS (1% BSA, v/v) as control or the respective compound in increasing concentration (10^-10 M – 10^-4 M in HBSS (1% BSA, v/v)), were added with subsequent addition of 25 µL of [3-[^125I]I-D-Tyr^6]MJ9 (2.0 nm) in HBSS (1% BSA, v/v).
All experiments were performed in triplicate for each concentration. After 2 h incubation at rt, the experiment was terminated by removal of the medium and consecutive rinsing with 300 µL of HBSS (1% BSA, v/v). The media of both steps were combined in one fraction and represent the amount of free radiolabeled reference. Afterwards, the cells were lysed with 300 µL of 1 M NaOH for at least 15 min and united with the 300 µL NaOH of the following washing step. Quantification of bound and free radiolabeled reference was accomplished in a γ-counter. IC50 determination for each conjugate was repeated twice.

[2] = Cu-complexed, n = 3, read-out: IC50 (nM), Cu-labeled
[3] = Ga-complexed, n = 3, read-out: IC50 (nM), Ga-labeled

T1 sequence (P30550 whole entry): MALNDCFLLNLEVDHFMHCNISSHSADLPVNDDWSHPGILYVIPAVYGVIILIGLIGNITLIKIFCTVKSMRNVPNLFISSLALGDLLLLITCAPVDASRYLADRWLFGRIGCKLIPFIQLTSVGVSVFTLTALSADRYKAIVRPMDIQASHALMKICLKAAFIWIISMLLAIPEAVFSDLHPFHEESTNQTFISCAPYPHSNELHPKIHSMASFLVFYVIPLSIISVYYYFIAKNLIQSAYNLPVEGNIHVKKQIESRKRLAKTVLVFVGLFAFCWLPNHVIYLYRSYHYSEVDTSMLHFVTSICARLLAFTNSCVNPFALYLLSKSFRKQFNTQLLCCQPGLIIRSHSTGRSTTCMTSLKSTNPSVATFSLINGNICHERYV

Compound: CC(C)CC(CC(C)C)NC(=O)[C@H](Cc1c[nH]cn1)NC(=O)CNC(=O)[C@@H](NC(=O)[C@H](C)NC(=O)[C@H](Cc1csc2ccccc12)NC(=O)[C@H](CCC(N)=O)NC(=O)[C@@H](Cc1ccccc1)NC(=O)COCC(=O)Nc1ccc(CNC(=O)CN2CCN(CC(=O)O)CCN(CC(=O)O)CCN(CC(=O)O)CC2)cc1)C(C)C [[Bta^8]NeoB] (X2-[dF]Q[Bta]AVGH-{NHCH(iBu)2}; N-terminus and C-terminus assumed)
- Percentage of intact compound in human serum [1]: 36.2 ± 2.6%

Compound: CC(C)C[C@H](NC(=O)C[C@H](O)[C@H](CC(C)C)NC(=O)[C@H](Cc1c[nH]cn1)NC(=O)CNC(=O)[C@@H](NC(=O)[C@H](C)NC(=O)[C@H](Cc1csc2ccccc12)NC(=O)[C@H](CCC(N)=O)NC(=O)[C@@H](Cc1ccccc1)NC(=O)CN1CCC(NC(=O)CN2CCN(CC(=O)O)CCN(CC(=O)O)CCN(CC(=O)O)CC2)CC1)C(C)C)C(N)=O [[Bta^8]RM2] ({DOTA}-[X1][dF]Q[Bta]AVGH[Sta]L-NH2)
- IC50 (GRPR; [2]): 4.2 ± 0.6 nM
- IC50 (GRPR; [3]): 2.3 ± 0.1 nM

Compound: CC(C)CC(CC(C)C)NC(=O)[C@H](Cc1cnc[nH]1)NC(=O)CNC(=O)[C@@H](NC(=O)[C@H](C)NC(=O)[C@H](Cc1c[nH]c2ccccc12)NC(=O)[C@H](CCC(N)=O)NC(=O)[C@@H](Cc1ccccc1)NC(=O)COCC(=O)Nc1ccc(CNC(=O)CN2CCN(CC(=O)O)CCN(CC(=O)O)CCN(CC(=O)O)CC2)cc1)C(C)C [NeoB, reference compound]
- Percentage of intact compound in human serum [1]: 60.8 ± 1.2%

Compound: CC(C)C[C@H](NC(=O)C[C@H](O)[C@H](CC(C)C)NC(=O)[C@H](Cc1c[nH]cn1)NC(=O)CNC(=O)[C@@H](NC(=O)[C@H](C)NC(=O)[C@H](Cc1c[nH]c2ccccc12)NC(=O)[C@H](CCO)NC(=O)[C@@H](Cc1ccccc1)NC(=O)CN1CCC(NC(=O)CN2CCN(CC(=O)O)CCN(CC(=O)O)CCN(CC(=O)O)CC2)CC1)C(C)C)C(N)=O [[Hse^7]RM2] ({DOTA}-[X1][dF][hSer]WAVGH[Sta]L-NH2)
- IC50 (GRPR; [2]): 33 ± 2.7 nM
- IC50 (GRPR; [3]): 7.7 ± 0.7 nM

Compound: CC(C)C[C@H](NC(=O)C[C@H](O)[C@H](CC(C)C)NC(=O)[C@H](Cc1c[nH]cn1)NC(=O)CNC(=O)[C@@H](NC(=O)[C@H](C)NC(=O)[C@H](Cc1c[nH]c2ccccc12)NC(=O)[C@H](CCO)NC(=O)[C@@H](Cc1ccccc1)NC(=O)CN1CCC(NC(=O)CCC(C(=O)O)N2CCN(CC(=O)O)CCN(CC(=O)O)CC2)CC1)C(C)C)C(N)=O (stereo partly drawn) [NODAGA-[des-DOTA, Hse^7]RM2] ({NODAGA}-[X1][dF][hSer]WAVGH[Sta]L-NH2)
- IC50 (GRPR; [2]): 11.8 ± 2.1 nM
- IC50 (GRPR; [3]): 7.2 ± 0.7 nM

Compound: CC(C)CC(CC(C)C)NC(=O)[C@H](Cc1c[nH]cn1)NC(=O)CNC(=O)[C@@H](NC(=O)[C@H](C)NC(=O)[C@](C)(Cc1c[nH]c2ccccc12)NC(=O)[C@H](CCC(N)=O)NC(=O)[C@@H](Cc1ccccc1)NC(=O)COCC(=O)Nc1ccc(CNC(=O)CN2CCN(CC(=O)O)CCN(CC(=O)O)CCN(CC(=O)O)CC2)cc1)C(C)C [[α-Me-Trp^8]NeoB]
- Percentage of intact compound in human serum [1]: 70.7 ± 2.8%

Compound: CC(C)C[C@H](NC(=O)C[C@H](O)[C@H](CC(C)C)NC(=O)[C@H](Cc1c[nH]cn1)NC(=O)CNC(=O)[C@@H](NC(=O)[C@H](C)NC(=O)[C@H](Cc1csc2ccccc12)NC(=O)[C@H](CCC(N)=O)NC(=O)[C@@H](Cc1ccccc1)NC(=O)CN1CCC(NC(=O)CN2CCN(CC(=O)O)CCN(CC(=O)O)CC2)CC1)C(C)C)C(N)=O [NOTA-[des-DOTA, Bta^8]RM2] ({NOTA}-[X1][dF]Q[Bta]AVGH[Sta]L-NH2)
- IC50 (GRPR; [2]): 2.8 ± 0.2 nM
- IC50 (GRPR; [3]): 1.8 nM

Compound: CC(C)C[C@H](NC(=O)C[C@H](O)[C@H](CC(C)C)NC(=O)[C@H](Cc1c[nH]cn1)NC(=O)CNC(=O)[C@@H](NC(=O)[C@H](C)NC(=O)[C@H](Cc1c[nH]c2ccccc12)NC(=O)[C@H](CCO)NC(=O)[C@@H](Cc1ccccc1)NC(=O)CN1CCC(NC(=O)CN2CCN(CC(=O)O)CCN(CC(=O)O)CC2)CC1)C(C)C)C(N)=O [NOTA-[des-DOTA, Hse^7]RM2] ({NOTA}-[X1][dF][hSer]WAVGH[Sta]L-NH2)
- IC50 (GRPR; [2]): 14.2 ± 2.7 nM
- IC50 (GRPR; [3]): 8.4 ± 1 nM

Compound: CC(C)CC(CC(C)C)NC(=O)[C@H](Cc1c[nH]cn1)NC(=O)CNC(=O)[C@@H](NC(=O)[C@H](C)NC(=O)[C@H](Cc1c[nH]c2ccccc12)NC(=O)[C@H](CCO)NC(=O)[C@@H](Cc1ccccc1)NC(=O)COCC(=O)Nc1ccc(CNC(=O)CN2CCN(CC(=O)O)CCN(CC(=O)O)CCN(CC(=O)O)CC2)cc1)C(C)C [[Hse^7]NeoB] (X2-[dF][hSer]WAVGH-{NHCH(iBu)2}; N-terminus and C-terminus assumed)
- Percentage of intact compound in human serum [1]: 57.4 ± 2.1%
